Earlier results on one compound are cited in patent US20080268034A1, “Solid Oral Dosage Forms of Ziprasidone Containing Colloidal Silicone Dioxide” (priority 2005, published 2008).

Molecules are shown by their SMILES.

`O=C1Cc2cc(CCN3CCN(c4nsc5ccccc45)CC3)c(Cl)cc2N1` [Ziprasidone free base, 5-[2-[4-(1,2-benzisothiazol-3-yl)-1-piperazinyl]ethyl]-6-chloro-1,3-dihydro-2H-indol-2-one]: the solubility entry is “very poor solubility”.
